Broadly, the IC50 is the concentration at which inhibition is half-maximal.

What all share (type): biochemical, cynomolgus monkey
In experiment [1] the target is cortisol synthase (CYP11B1) (Macaca fascicularis, UniProt A0A2K5ULY1). In words: Inhibition of cortisol synthesis (cynomolgus adrenal mitochondria, cortisol by mass spectrometry). The protocol:
The aldosterone synthase and cortisol synthase inhibition assays employ cynomolgus adrenal gland mitochondria as the source of aldosterone synthase (CYP11B2) and cortisol synthase (CYP11B1). Mitochondria are prepared from frozen cynomolgus monkey adrenal glands according to Method A described in by J. D. McGarry et al. (Biochem. J., 1983, 214, 21-28), with a final resuspension in the AT buffer described in R. Yamaguchi et al. (Cell Death and Differentiation, 2007, 14, 616-624), frozen as aliquots in liquid nitrogen and stored at −80° C. until use. One unit of CYP11B2 and CYP11B1 activity in these preparations is defined as the amount of enzyme that generates 1 pmol of product in one hour under the conditions described.
(§1) Assays are performed in 96-well format in a final volume of 60 microL/well, containing 100 mM potassium phosphate, pH 7.4, 1% (v/v) DMSO, and additionally, 2 μM of corticosterone and 50 units of CYP11B2 activity. Reactions are started by the addition of NADPH to 1 mM and allowed to proceed for 90 minutes at 37° C. Reactions are terminated by the addition of 60 μL of MeCN containing an internal standard for mass spectrometry. One hundred microliters are then transferred to a glass filter plate and centrifuged at 570×g for 5 minutes and the filtrate is collected. Reaction product aldosterone is quantified by mass spectrometry. To determine the assay blank value (0% activity), NADPH is omitted from some reactions.
Dose dependent inhibition is quantified by the inclusion of compound at various concentrations. Maximum activity (100%) is defined by reactions containing NADPH, but without compound. Activities at each concentration are expressed as a percentage of the maximum activity (y-axis) and plotted against concentration of compound (x-axis) and the concentration corresponding to 50% activity (IC50) determined using the XLFit curve-fitting program using a 4-parameter logistic model.
Assays are performed as for aldosterone synthase except for the use of 150 units of CYP11B1, 11-deoxycortisol as substrate and cortisol measured as product.

Experiment [2] deals with aldosterone synthase (CYP11B2). In words: Inhibition of aldosterone synthase (cynomolgus adrenal mitochondria, aldosterone by mass spectrometry). To be noted: selectivity for aldosterone synthase inhibition over cortisol synthase (CYP11B1) inhibition, fold. As for the experimental part:
(§2) The aldosterone synthase and cortisol synthase inhibition assays employ cynomolgus adrenal gland mitochondria as the source of aldosterone synthase (CYP11B2) and cortisol synthase (CYP11B1). […] One unit of CYP11B2 and CYP11B1 activity in these preparations is defined as the amount of enzyme that generates 1 pmol of product in one hour under the conditions described.
(§3) The compounds of the invention may be evaluated for aldosterone synthase inhibition by the following assay:
as §1
(§4) Dose dependent inhibition is quantified by the inclusion of compound at various concentrations. Maximum activity (100%) is defined by reactions containing NADPH, but without compound.

In experiment [3] the target is aldosterone synthase (CYP11B2) (Macaca fascicularis, UniProt A0A2K5UPL9). The experiment is described as above. To be noted: 2 μM corticosterone substrate, 50 units CYP11B2, 90 min, 37° C.; read-out: Aldosterone Inhibition IC50. The protocol:
as §2, §3, §1, §4

The mark [4] stands for this setting: 11-deoxycortisol substrate, 150 units CYP11B1; read-out: Cortisol Inhibition IC50.
The mark [5] stands for this setting: read-out: Cortisol Inhibition IC50; 11-deoxycortisol substrate, 150 units CYP11B1.

Structures are written as SMILES. Read-outs that look alike come from different tables or passages of the source. Where only a bound is given, the exact number is not on record here.

Sequence of aldosterone synthase (CYP11B2) (Macaca fascicularis, UniProt A0A2K5UPL9) (A0A2K5UPL9 1-503): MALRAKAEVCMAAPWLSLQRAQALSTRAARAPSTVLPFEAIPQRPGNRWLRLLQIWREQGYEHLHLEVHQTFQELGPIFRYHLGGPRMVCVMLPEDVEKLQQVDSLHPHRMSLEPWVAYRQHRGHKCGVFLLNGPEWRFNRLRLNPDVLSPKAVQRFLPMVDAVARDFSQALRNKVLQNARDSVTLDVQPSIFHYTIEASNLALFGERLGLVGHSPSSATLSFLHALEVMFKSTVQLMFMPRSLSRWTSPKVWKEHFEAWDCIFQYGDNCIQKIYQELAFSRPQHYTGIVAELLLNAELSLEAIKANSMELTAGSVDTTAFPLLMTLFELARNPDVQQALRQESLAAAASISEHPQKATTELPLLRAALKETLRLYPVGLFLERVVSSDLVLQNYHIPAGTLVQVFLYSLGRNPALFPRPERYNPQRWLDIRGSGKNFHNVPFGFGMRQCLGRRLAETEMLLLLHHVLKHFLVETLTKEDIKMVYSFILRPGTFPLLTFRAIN

Take `CC1(C)CC(=O)c2c(ncn2C2CC(c3ccccc3)C2)C1` (stereo not drawn) [C-ACU, 6,6-Dimethyl-3-(3-phenyl-cyclobutyl)-3,5,6,7-tetrahydro-benzoimidazol-4-one]: the IC50 in experiment [1] (setting [4]) worked out at 9.4 µM; in experiment [3] it was 110 nM. In addition, the Selectivity in experiment [2] is 85.
As for `N#Cc1ccc(-n2cnc3c2C(=O)CC2(CCC2)C3)cc1Cl` [C-ACG, 3-(4-Cyano, 3-chlorophenyl)-6,6-spirocyclobutyl-3,5,6,7-benzimidazolo-4-one], the IC50 in experiment [1] (setting [5]) is 0.093 µM; in experiment [3] it was 12 nM. In addition, in experiment [2], the Selectivity came to 7.5.
Consider `N#Cc1ccc(-n2cnc3c2C(=O)CCC3)cc1` [C-AAL, 4-(7-Oxo-4,5,6,7-tetrahydro-benzoimidazol-1-yl)-benzonitrile], for which the IC50 is 4.6 µM in experiment [1] (setting [4]) and 19 nM in experiment [3]. For the same molecule, the Selectivity in experiment [2] is 250.
For the molecule `CC1(C)CC(=O)c2c(ncn2Cc2ccc(C(=O)NCCS(C)(=O)=O)cc2)C1` [C-ADU, 4-(5,5-Dimethyl-7-oxo-4,5,6,7-tetrahydro-benzoimidazol-1-ylmethyl)-N-(2-methanesulfonyl-ethyl)-benzamide], the IC50 in experiment [1] (setting [4]) stood at 6.2 µM; in experiment [3], 210 nM. The molecule also showed a Selectivity in experiment [2] of 30.
As to `CN(CCO)C(=O)c1ccc(Cn2cnc3c2C(=O)CC(C)(C)C3)cc1` [C-ADS, 4-(5,5-Dimethyl-7-oxo-4,5,6,7-tetrahydro-benzoimidazol-1-ylmethyl)-N-(2-hydroxy-ethyl)-N-methyl-benzamide], the half-maximal inhibitory concentration (IC50) in experiment [1] (setting [4]) stood at 43 µM; in experiment [3], 290 nM. Further, in experiment [2], the Selectivity worked out at 150.
The like results for `CC1(C)CC(=O)c2c(ncn2-c2ccc(Cl)cc2Cl)C1` [C-ABG, 3-(2,4-Dichloro-phenyl)-6,6-dimethyl-3,5,6,7-tetrahydro-benzoimidazol-4-one] were, in that order, 0.5 µM, 4.2 nM and 120.
For `CC1(C)CC(=O)c2c(ncn2-c2ccc(F)cc2)C1` [C-ABP, 3-(4-Fluoro-phenyl)-6,6-dimethyl-3,5,6,7-tetrahydro-benzoimidazol-4-one], the IC50 in experiment [1] (setting [4]) stood at 1.1 µM; in experiment [3], 21 nM. The molecule also registered a Selectivity in experiment [2] of 52.
With `CC1(C)CC(=O)c2c(ncn2-c2cccc(Cl)c2)C1` [C-ABK, 3-(3-Chloro-phenyl)-6,6-dimethyl-3,5,6,7-tetrahydro-benzoimidazol-4-one], the IC50 is 7 µM in experiment [1] (setting [4]) and 19 nM in experiment [3]. Besides, the Selectivity in experiment [2] stood at 370.
Take `CC1(C)CC(=O)c2c(ncn2Cc2ccc3[nH]ncc3c2)C1` [C-ACY, 3-(1H-Indazol-5-ylmethyl)-6,6-dimethyl-3,5,6,7-tetrahydro-benzoimidazol-4-one]: the IC50 is 1.7 µM in experiment [1] (setting [4]) and 110 nM in experiment [3]. The Selectivity in experiment [2] came out at 15.
`N#Cc1ccc(-n2cnc3c2C(=O)C[C@H](C(N)=O)C3)cc1Cl` [C-AEB-B, (R)-1-(3-Chloro-4-cyano-phenyl)-7-oxo-4,5,6,7-tetrahydro-1H-benzoimidazole-5-carboxylic acid amide]: the IC50 was above 30 µM in experiment [1] (setting [5]) and 32 nM in experiment [3]. The same molecule came in with a Selectivity in experiment [2] of 940.
`O=C1CCCc2ncn(-c3ccc4c(c3)OCCO4)c21` [C-AAI, 3-(2,3-Dihydro-benzo[1,4]dioxin-6-yl)-3,5,6,7-tetrahydro-benzoimidazol-4-one]: the half-inhibitory concentration (IC50) is above 30 µM in experiment [1] (setting [4]) and 160 nM in experiment [3]. Further, the Selectivity in experiment [2] was 180.
Consider `COc1ccc(-n2cnc3c2C(=O)CC(C)(C)C3)cc1` [C-ABR, 3-(4-Methoxy-phenyl)-6,6-dimethyl-3,5,6,7-tetrahydro-benzoimidazol-4-one], for which the figures for the 50% inhibitory concentration (IC50) in experiment [1] (setting [4]) and in experiment [3] were 21 µM and 130 nM, respectively. The Selectivity in experiment [2] turned out to be 150.
For `COc1ccc2c(c1)CCC(n1cnc3c1C(=O)CC(C)(C)C3)C2` (stereo not drawn) [C-ACN, 3-(6-Methoxy-1,2,3,4-tetrahydro-naphthalen-2-yl)-6,6-dimethyl-3,5,6,7-tetrahydro-benzoimidazol-4-one], the IC50 was 11 µM in experiment [1] (setting [4]) and 24 nM in experiment [3]. This molecule displayed a Selectivity in experiment [2] of 460.
`CC1(C)CC(=O)c2c(ncn2-c2cc(Cl)cc(Cl)c2)C1` [C-ABH, 3-(3,5-Dichloro-phenyl)-6,6-dimethyl-3,5,6,7-tetrahydro-benzoimidazol-4-one]: the IC50 was determined as 5.2 µM in experiment [1] (setting [4]) and 22 nM in experiment [3]. The Selectivity in experiment [2] came to 240.
The like results for `CC1(C)CC(=O)c2c(ncn2-c2ccc(Cl)cc2)C1` [C-ABN, 3-(4-Chloro-phenyl)-6,6-dimethyl-3,5,6,7-tetrahydro-benzoimidazol-4-one] were, in that order, 1 µM, 15 nM and 67.
Take `Cc1nnsc1Cn1cnc2c1C(=O)CC(C)(C)C2` [C-ADC, 6,6-Dimethyl-3-(4-methyl-[1,2,3]thiadiazol-5-ylmethyl)-3,5,6,7-tetrahydro-benzoimidazol-4-one]: the results for the IC50 in experiment [1] (setting [4]) and in experiment [3] were 45 µM and 250 nM, respectively. For the same molecule, the Selectivity in experiment [2] is reported as 180.
Turning to `CC1(C)CC(=O)c2c(ncn2C2CCc3ncncc3C2)C1` (stereo not drawn) [C-ACV, 6,6-Dimethyl-3-(5,6,7,8-tetrahydro-quinazolin-6-yl)-3,5,6,7-tetrahydro-benzoimidazol-4-one], the results for the half-inhibitory concentration (IC50) in experiment [1] (setting [4]) and in experiment [3] were above 30 µM and 860 nM, respectively. For the same molecule, the Selectivity in experiment [2] came out at 35.
The like results for `CC1(C)CC(=O)c2c(ncn2Cc2ccc(C(C)(C)O)cc2)C1` [C-ADV, 3-[4-(1-Hydroxy-1-methyl-ethyl)-benzyl]-6,6-dimethyl-3,5,6,7-tetrahydro-benzoimidazol-4-one] were, in that order, 0.035 µM, 25 nM and 1.4.
As for `CC1(C)CC(=O)c2c(ncn2C2CCCCc3ccccc32)C1` (stereo not drawn) [C-ACW, 6,6-Dimethyl-3-(6,7,8,9-tetrahydro-5H-benzocyclohepten-5-yl)-3,5,6,7-tetrahydro-benzoimidazol-4-one], the values for the half-maximal inhibitory concentration (IC50) in experiment [1] (setting [4]) and in experiment [3] were 7.2 µM and 24 nM, respectively. Also, the Selectivity in experiment [2] worked out at 300.
`CC1(C)CC(=O)c2c(ncn2-c2ccc(F)c(F)c2)C1` [C-ABC, 3-(3,4-Difluoro-phenyl)-6,6-dimethyl-3,5,6,7-tetrahydro-benzimidazol-4-one]: the concentration for half-maximal inhibition (IC50) worked out at 0.65 µM in experiment [1] (setting [4]) and 10 nM in experiment [3]. The same molecule came in with a Selectivity in experiment [2] of 63.
On to `CN1C(=O)CCc2cc(-n3cnc4c3C(=O)CCC4)cnc21` [C-AAD, 1-Methyl-6-(7-oxo-4,5,6,7-tetrahydro-benzoimidazol-1-yl)-3,4-dihydro-1H-[1,8]naphthyridin-2-one], for which the results for the IC50 in experiment [1] (setting [4]) and in experiment [3] were above 30 µM and 150 nM, respectively. This molecule showed a Selectivity in experiment [2] of 200.
`CC1(C)CC(=O)c2c(ncn2-c2ccc(F)c(Cl)c2)C1` [C-ABI, 3-(3-Chloro-4-fluoro-phenyl)-6,6-dimethyl-3,5,6,7-tetrahydro-benzoimidazol-4-one]: the half-inhibitory concentration (IC50) in experiment [1] (setting [4]) was 0.91 µM; in experiment [3], 4.8 nM. The molecule also came in with a Selectivity in experiment [2] of 190.
The like results for `CC1(C)CC(=O)c2c(ncn2C2CCc3cc(C#N)ccc3C2)C1` (stereo not drawn) [C-ADN, 6-(5,5-Dimethyl-7-oxo-4,5,6,-tetrahydro-benzoimidazol-1-yl)-5,6,7,8-tetrahydro-naphthalene-2-carbonitrile] were, in that order, above 30 µM, 190 nM and 160.

Source of the values: US10858342B2, “Bicyclic imidazole derivatives useful for the treatment of renal diseases, cardiovascular diseases and fibrotic diseases” (Boehringer Ingelheim International GmbH, priority 2016, dated 2020).
